Measured values taken from EP4810052A2, “HCRHR2 SELECTIVE POLYPEPTIDES” (Gubra A/S, priority 2023, dated 2026).
Starred links: 1 amine or outer side, 2 acyl side, 3 side chain; linkers in the order of their positions; H or OH if unused. Non-standard residues stand in square brackets, D forms with d. Residues, ends and D or L forms follow the SMILES beside them. Groups on a side chain read outwards from the residue. *: point of attachment. C20 diacid = O=C(O)CCCCCCCCCCCCCCCCCCC(=O)*; γGlu = O=C(O)[C@H](CCC(=O)[*:2])N[*:1]; AEEA = NCCOCCOCC(=O)O; Aib = CC(C)(N)C(=O)O

What was measured:
[1] = Thioflavin T fibril formation assay of purified peptides; assay type: physicochemical; details: pH 7.5, ThT assay
Summary of the method: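 Fibril formation read as rising ThT emission at 480 nm (450 nm excitation), 4 µM ThT, over 96 h at 40°C with alternating 5-min rest and 700 rpm shaking cycles, in triplicate. Samples were 200 µM compound in 50 mM phosphate at various pH values, or co-formulated at 200 µM in semaglutide product at pH 7.4.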

[2] = Chemical stability of purified peptides (RP-UHPLC main peak purity loss); assay type: physicochemical; details: pH 7.5, 40°C; for Chemical stability at pH 7.5 after 14 days at 40°C (% degradation): first value of cell; for Chemical stability at pH 7.5 after 28 days at 40°C (% degradation): second value of cell
Summary of the method: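 Purity loss is the drop in RP-UHPLC main-peak area fraction (215 nm detection, C8 column at 50 °C) from time zero to day 14 and/or day 28 at 40 °C. Samples held roughly 1.0 mg/ml peptide in 50 mM phosphate, pH 7.5, with other pH targets also tested.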

SMILES	Fibrillation (pH 7.5) [1]	Chemical stability at pH 7.5 after 14 days at 40°C (% degradation) [2]	Chemical stability at pH 7.5 after 28 days at 40°C (% degradation) [2]
CC[C@H](C)[C@H](N)C(=O)N[C@H](C(=O)N[C@@H](CC(C)C)C(=O)N[C@@H](CO)C(=O)N[C@@H](CC(C)C)C(=O)N[C@@H](CC(=O)O)C(=O)N[C@H](C(=O)N1CCC[C@H]1C(=O)N[C@H](C(=O)NCC(=O)N[C@@H](CC(C)C)C(=O)N[C@@H](CC(C)C)C(=O)N[C@@H](CCC(N)=O)C(=O)N[C@H](C(=O)N[C@@H](CC(C)C)C(=O)N[C@@H](CC(C)C)C(=O)N[C@@H](CCC(=O)O)C(=O)N[C@@H](CCC(N)=O)C(=O)N[C@@H](C)C(=O)N[C@@H](CCCNC(=N)N)C(=O)N[C@@H](C)C(=O)N[C@@H](CCCNC(=N)N)C(=O)N[C@@H](C)C(=O)N[C@@H](C)C(=O)N[C@@H](CCCNC(=N)N)C(=O)N[C@@H](CCC(=O)O)C(=O)N[C@@H](CCC(N)=O)C(=O)N[C@@H](C)C(=O)N[C@@H](CCCCNC(=O)COCCOCCNC(=O)COCCOCCNC(=O)CC[C@H](NC(=O)CC[C@H](NC(=O)CCCCCCCCCCCCCCCCCCC(=O)O)C(=O)O)C(=O)O)C(=O)N[C@@H](CCC(=O)O)C(=O)N[C@@H](CC(N)=O)C(=O)N[C@@H](C)C(=O)N[C@@H](CCC(=O)O)C(=O)N[C@H](C(=O)N[C@@H](CC(C)C)C(=O)N[C@@H](C)C(=O)N[C@@H](CCC(=O)O)C(=O)N[C@H](C(N)=O)C(C)C)[C@@H](C)CC)[C@@H](C)CC)[C@@H](C)CC)C(C)C)C(C)C [SEQ ID NO: 17] (H-IVLSLDVPIGLLQILLEQARARAAREQAK([AEEA-AEEA-γGlu-γGlu-C20 diacid])ENAEILAEV-NH2)	No	-1.6%	-2.6%
CC[C@H](C)[C@H](N)C(=O)N[C@H](C(=O)N[C@@H](CC(C)C)C(=O)N[C@@H](CO)C(=O)N[C@@H](CC(C)C)C(=O)N[C@@H](CC(=O)O)C(=O)N[C@H](C(=O)N1CCC[C@H]1C(=O)N[C@H](C(=O)NCC(=O)N[C@@H](CC(C)C)C(=O)N[C@@H](CC(C)C)C(=O)N[C@@H](CCC(N)=O)C(=O)N[C@H](C(=O)N[C@@H](CC(C)C)C(=O)N[C@@H](CC(C)C)C(=O)N[C@@H](CCC(=O)O)C(=O)N[C@@H](CCC(N)=O)C(=O)N[C@@H](C)C(=O)N[C@@H](CCCNC(=N)N)C(=O)N[C@@H](C)C(=O)N[C@@H](CCCNC(=N)N)C(=O)N[C@@H](C)C(=O)N[C@@H](C)C(=O)N[C@@H](CCCNC(=N)N)C(=O)N[C@@H](CCC(=O)O)C(=O)N[C@@H](CCC(N)=O)C(=O)N[C@@H](C)C(=O)N[C@@H](CCCCNC(=O)COCCOCCNC(=O)COCCOCCNC(=O)CC[C@H](NC(=O)CC[C@H](NC(=O)CCCCCCCCCCCCCCCCCCC(=O)O)C(=O)O)C(=O)O)C(=O)NC(C)(C)C(=O)N[C@@H](CC(N)=O)C(=O)N[C@@H](C)C(=O)N[C@@H](CCC(=O)O)C(=O)N[C@H](C(=O)N[C@@H](CC(C)C)C(=O)N[C@@H](C)C(=O)N[C@@H](CCC(=O)O)C(=O)N[C@H](C(N)=O)C(C)C)[C@@H](C)CC)[C@@H](C)CC)[C@@H](C)CC)C(C)C)C(C)C [SEQ ID NO: 19] (H-IVLSLDVPIGLLQILLEQARARAAREQAK([AEEA-AEEA-γGlu-γGlu-C20 diacid])[Aib]NAEILAEV-NH2)	No	-1.5%	-2.6%
